biological target: T1, trypsin-activated recombinant human renin (Homo sapiens, UniProt P00797); assay: Renin fluorescence assay (internally quenched peptide substrate); format: biochemical; details: compounds I*
T1 sequence (P00797 67-406): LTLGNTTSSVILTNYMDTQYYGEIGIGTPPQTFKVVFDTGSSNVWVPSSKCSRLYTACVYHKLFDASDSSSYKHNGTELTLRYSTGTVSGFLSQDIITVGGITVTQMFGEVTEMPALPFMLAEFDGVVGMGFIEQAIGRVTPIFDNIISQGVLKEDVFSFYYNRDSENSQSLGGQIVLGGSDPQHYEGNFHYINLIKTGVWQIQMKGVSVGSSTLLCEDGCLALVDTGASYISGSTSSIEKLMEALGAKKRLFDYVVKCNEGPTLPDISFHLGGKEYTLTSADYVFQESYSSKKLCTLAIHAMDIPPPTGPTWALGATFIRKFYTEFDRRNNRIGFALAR
Procedure, shortened: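 Compounds (1 nM–10 μM final, DMSO) were mixed with internally quenched angiotensinogen-sequence substrate in pH 7.0 BES/NaCl/BSA buffer, then 0.2-2 nM trypsin-activated human renin added. Rate from the linear fluorescence increase (340 nm excitation, 495 nm emission) over 60-360 min at rt, compared with uninhibited control.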

Structure (SMILES) | IC50 [µM]
COC(=O)NCCO[C@@H](c1cccc(Cl)c1)[C@@H]1CCCN(C(=O)NC[C@@H](N)C[C@H]2CCCCOC2)C1 [I*-68a, methyl 2-((R)-((R)-1-((S)-2-amino-3-((R)-oxepan-3-yl)propylcarbamoyl)piperidin-3-yl)(3-chlorophenyl)methoxy)ethylcarbamate] | < 0.001
CNC[C@H](CC1CCOCC1)NC(=O)N1CCC[C@@H]([C@@H](OCCNC(=O)OC)c2cc(F)ccc2F)C1 [I*-69a, methyl 2-((R)-(2,5-difluorophenyl)((R)-1-((S)-1-(methylamino)-3-(tetrahydro-2H-pyran-4-yl)propan-2-ylcarbamoyl)piperidin-3-yl)methoxy)ethylcarbamate] | < 0.05
CNC[C@H](CC1CCOCC1)NC(=O)N1CCC[C@@H]([C@@H](OCCNC(=O)OC)c2cc(F)cc(F)c2)C1 [I*-70a, methyl 2-((R)-(3,5-difluorophenyl)((R)-1-((S)-1-(methylamino)-3-(tetrahydro-2H-pyran-4-yl)propan-2-ylcarbamoyl)piperidin-3-yl)methoxy)ethylcarbamate] | < 0.02
CNC[C@H](CC1CCOCC1)NC(=O)N1CCC[C@@H]([C@@H](OCCNC(=O)OC)c2cccc(F)c2F)C1 [I*-71a, methyl 2-((R)-(2,3-difluorophenyl)((R)-1-((S)-1-(methylamino)-3-(tetrahydro-2H-pyran-4-yl)propan-2-ylcarbamoyl)piperidin-3-yl)methoxy)ethylcarbamate] | < 0.02
CNC[C@@H](NC(=O)N1CCC[C@@H]([C@@H](OCCNC(=O)OC)c2cccc(F)c2F)C1)[C@@H](O)C1CCCC1 [I*-72a, methyl 2-((R)-((R)-1-((1S,2R)-1-cyclopentyl-1-hydroxy-3-(methylamino)propan-2-ylcarbamoyl)piperidin-3-yl)(2,3-difluorophenyl)methoxy)ethylcarbamate] | < 0.01
COC(=O)NCCO[C@@H](c1cc(F)cc(F)c1)[C@@H]1CCCN(C(=O)NC[C@@H](N)C[C@H]2CCCCOC2)C1 [I*-73a, methyl 2-((R)-((R)-1-((S)-2-amino-3-((R)-oxepan-3-yl)propylcarbamoyl)piperidin-3-yl)(3,5-difluorophenyl)methoxy)ethylcarbamate] | < 0.01
CNC[C@H](CC12CC3CC(CC1C3)C2)NC(=O)N1CCC[C@@H]([C@@H](OCCNC(=O)OC)c2ccccc2)C1 [I*-74a, methyl 2-((R)-((3R)-1-((S)-1-(3-noradamantyl)-3-(methylamino)propan-2-ylcarbamoyl)piperidin-3-yl)(phenyl)methoxy)ethylcarbamate] | < 0.02
CNC[C@H](CC1CCOCC1)NC(=O)N1CCO[C@@H]([C@@H](OCCNC(=O)OC)c2cccc(Cl)c2)C1 [I*-75a, methyl 2-((S)-(3-chlorophenyl)((R)-4-((S)-1-(methylamino)-3-(tetrahydro-2H-pyran-4-yl)propan-2-ylcarbamoyl)morpholin-2-yl)methoxy)ethylcarbamate] | > 0.05
CNC[C@H](C[C@H]1C[C@@H](C)O[C@@H](C)C1)NC(=O)N1CCC[C@@H]([C@@H](OCCNC(=O)OC)c2cccc(F)c2)C1 [I*-77a, methyl 2-((R)-((R)-1-((S)-1-((2S,4r,6R)-2,6-dimethyl-tetrahydro-2H-pyran-4-yl)-3-(methylamino)propan-2-ylcarbamoyl)piperidin-3-yl)(3-fluorophenyl)methoxy)ethylcarbamate] | > 0.05
CNC[C@H](C[C@H]1CCCCOC1)NC(=O)N1CCC[C@@H]([C@@H](OCCNC(=O)OC)c2cc(F)ccc2C)C1 [I*-79a, methyl 2-((R)-(5-fluoro-2-methylphenyl)((R)-1-((S)-1-(methylamino)-3-((R)-oxepan-3-yl)propan-2-ylcarbamoyl)piperidin-3-yl)methoxy)ethylcarbamate] | < 0.01
CC[C@@H](N)[C@H](CC1CCCCC1)NC(=O)N1CCC[C@@H]([C@@H](OCCNC(=O)OC)c2cccc(Cl)c2)C1 [I*-83a, methyl 2-((R)-((R)-1-((2S,3R)-3-amino-1-cyclohexylpentan-2-ylcarbamoyl)piperidin-3-yl)(3-chlorophenyl)methoxy)ethylcarbamate] | < 0.001
CNC[C@H](CC1CCCCC1)NC(=O)N1CCC[C@@H]([C@@H](OCCNC(=O)OC)c2cc(Cl)ccc2C)C1 [I*-85a, methyl 2-((R)-(5-chloro-2-methylphenyl)((R)-1-((S)-1-cyclohexyl-3-(methylamino)propan-2-ylcarbamoyl)piperidin-3-yl)methoxy)ethylcarbamate] | < 0.001
CNC[C@H](CC1CCCCC1)NC(=O)N1CCC[C@@H]([C@@H](OCC(C)NC(=O)OC)c2cccc(Cl)c2)C1 (some centres unmarked) [I*-87a] | < 0.05

Further lines, results first:

IC50 [µM] | Structure (SMILES)
< 0.01 | CNC[C@@H](NC(=O)N1CCC[C@@H]([C@@H](OCCNC(=O)OC)c2cccc(Cl)c2)C1)[C@@H](O)C1CCCC1 [I*-67a, methyl 2-((R)-(3-chlorophenyl)((R)-1-((1S,2R)-1-cyclopentyl-1-hydroxy-3-(methylamino)propan-2-ylcarbamoyl)piperidin-3-yl)methoxy)ethylcarbamate]
> 0.05 | CNC[C@H](C[C@H]1CCC(=O)N(C)C1)NC(=O)N1CCC[C@@H]([C@@H](OCCNC(=O)OC)c2cccc(F)c2)C1 [I*-76a, methyl 2-((R)-(3-fluorophenyl)((R)-1-((S)-1-((R)-1-methyl-6-oxopiperidin-3-yl)-3-(methylamino)propan-2-ylcarbamoyl)piperidin-3-yl)methoxy)ethylcarbamate]
> 0.05 | CNC[C@H](CCC1(OC)CCCC1)NC(=O)N1CCC[C@@H]([C@@H](OCCNC(=O)OC)c2cccc(F)c2)C1 [I*-78a, methyl 2-((R)-(3-fluorophenyl)((R)-1-((S)-4-(1-methoxycyclopentyl)-1-(methylamino)butan-2-yl-carbamoyl)piperidin-3-yl)methoxy)ethylcarbamate]
< 0.01 | CNC[C@H](CC1CCC(=O)CC1)NC(=O)N1CCC[C@@H]([C@@H](OCCNC(=O)OC)c2cccc(Cl)c2)C1 [I*-80a, methyl 2-((R)-(3-chlorophenyl)((R)-1-((S)-1-(methylamino)-3-(4-oxocyclohexyl)propan-2-ylcarbamoyl)piperidin-3-yl)methoxy)ethylcarbamate]
< 0.001 | CN[C@H](C)[C@H](CC1CCCCC1)NC(=O)N1CCC[C@@H]([C@@H](OCCNC(=O)OC)c2cccc(Cl)c2)C1 [I*-82a, methyl 2-((R)-(3-chlorophenyl)((R)-1-((2S,3R)-1-cyclohexyl-3-(methylamino)butan-2-ylcarbamoyl)piperidin-3-yl)methoxy)ethylcarbamate]
< 0.001 | CNC[C@H](CC1CCCCCC1)NC(=O)N1CCC[C@@H]([C@@H](OCCNC(=O)OC)c2cccc(Cl)c2)C1 [I*-84a, methyl 2-((R)-(3-chlorophenyl)((R)-1-((S)-1-cycloheptyl-3-(methylamino)propan-2-ylcarbamoyl)piperidin-3-yl)methoxy)ethylcarbamate]
< 0.001 | CNC[C@H](CC1CCC(C)CC1)NC(=O)N1CCC[C@@H]([C@@H](OCCNC(=O)OC)c2cccc(Cl)c2)C1 (stereo partly drawn) [I*-86a, methyl 2-((R)-(3-chlorophenyl)((R)-1-((S)-1-(methylamino)-3-(4-methylcyclohexyl)propan-2-ylcarbamoyl)piperidin-3-yl)methoxy)ethylcarbamate]
< 0.001 | CCNC[C@H](CC1CCCCC1)NC(=O)N1CCC[C@@H]([C@@H](OCCNC(=O)OC)c2cccc(Cl)c2)C1 [I*-88a, methyl 2-((R)-(3-chlorophenyl)((R)-1-((S)-1-cyclohexyl-3-(ethylamino)propan-2-ylcarbamoyl)piperidin-3-yl)methoxy)ethylcarbamate]
> 0.05 | CNC[C@@H](CC1(C)CCCCC1)NC(=O)N1CCC[C@@H]([C@@H](OCCNC(=O)OC)c2cccc(Cl)c2)C1 [I*-89a, methyl 2-((R)-(3-chlorophenyl)((R)-1-((R)-1-(methylamino)-3-(1-methylcyclohexyl)propan-2-ylcarbamoyl)piperidin-3-yl)methoxy)ethylcarbamate]
< 0.001 | CNC[C@H](CC1(C)CCCCC1)NC(=O)N1CCC[C@@H]([C@@H](OCCNC(=O)OC)c2cccc(Cl)c2)C1 [I*-90a, methyl 2-((R)-(3-chlorophenyl)((R)-1-((S)-1-(methylamino)-3-(1-methylcyclohexyl)propan-2-ylcarbamoyl)piperidin-3-yl)methoxy)ethylcarbamate]
< 0.01 | CNC[C@H](CC1CCCCC1)NC(=O)N1CCCC[C@@H]([C@@H](OCCNC(=O)OC)c2cccc(Cl)c2)C1 [I*-91a, methyl 2-((R)-(3-chlorophenyl)((R)-1-((S)-1-cyclohexyl-3-(methylamino)propan-2-ylcarbamoyl)azepan-3-yl)methoxy)ethylcarbamate]
> 0.05 | CNC[C@H](CC1CCCCC1)NC(=O)N1CCCC[C@@H]([C@H](OCCNC(=O)OC)c2cccc(Cl)c2)C1 [I*-92a, methyl 2-((S)-(3-chlorophenyl)((R)-1-((S)-1-cyclohexyl-3-(methylamino)propan-2-ylcarbamoyl)azepan-3-yl)methoxy)ethylcarbamate]
> 0.05 | CNC[C@H](CN1CCCCC1=O)NC(=O)N1CCC[C@@H]([C@@H](OCCNC(=O)OC)c2cccc(Cl)c2)C1 [I*-93a, methyl 2-((R)-(3-chlorophenyl)((R)-1-((R)-1-(methylamino)-3-(2-oxopiperidin-1-yl)propan-2-yl-carbamoyl)piperidin-3-yl)methoxy)ethylcarbamate]
